“Also recorded” adds a separate entry of the source. Where a SMILES comes first, the peptide text is derived from it.
Assays:
trypsin = assay: In vitro trypsin digestion assay; details: peptide 1 mM in PBS pH 7.4, 100 µL + 1 µL trypsin (1 mg/mL) (1%), 37 °C, different time intervals, LC/MS peak detection at 254 nm; compared with linear peptide 1; Fig. 3C
Procedure: LC-MS spectra were carried out on SHIMAZU LC-MS 8030 (ESI-MS) in positive ion mode.
trypsin (1 mg/mL) was added and incubated at 37°C. At different time interval, the solution was mixed with 12%
trichloroacetic acid (H2O/CH3CN: 2:1) to inactivate the trypsin.
the peptide remaining was examined by LC/MS with a grace smart C18 250× 4.6mm column, using a 4% per minute
linear gradient from 10% to 70% acetonitrile over 15min. The amount of starting material left in each sample was

U2OS cells [1] = assay: LDH release assay
Procedure: concentration of 10 μM in FBS free medium and incubated with the cells for 4 hours at 37°C. After that, the medium
was removed and the cells were gently washed 2 times with PBS and then fixed with 4% paraformaldehyde (Alfa
Aesar, MA) in PBS for 10 minutes. The cells were again washed 2 times with PBS and stained with 1μg/ml 4', 6-
diamidino-2-phenylindole (DAPI) (Invitrogen, CA) in PBS for 5 minutes. Images of peptide localization in cells were
taken on PerkinElmer confocal microscopy under the same parameters and processed using Volocity software package
LDH release was performed by using Cytotoxicity LDH Assay Kit-WST®. Briefly, ~10000 cells suspension was added
to each well of the 96 well plate and allowed to grow overnight. The cells were then incubated with the fresh medium
containing serial dilution of peptides at 37 °C for 4h. Lysis Buffer was added as positive control at 37 °C for 30min.
After that, 50μL of the incubation medium were taken out to another 96 well plate followed the addition of 50μL Working
Solution and incubated for 30min at room temperature. Then 25μL Stop Solution was added into the wells. The
absorbance at 490 nm was measured by a microplate reader (Perkin Elmer, Envision, 2104 Multilabel Reader). The
LDH release activity was calculated by (LDH% samples-LDH% blank) / (LDH% positive control -LDH% blank).

[2] = target: T1, Recombinant Human Caspase-3 protein (Homo sapiens, UniProt P42574); assay: In vitro caspase-3 AMC release assay; type: biochemical; details: peptide 5 µM, caspase-3 0.4 ng/µL, 1 h, read every 5 min, Ex 340 nm / Em 450 nm, triplicates; Fig. 5C
T1 construct: purchased RnD SYSTEMS
T1 sequence (P42574 29-175 limits assumed): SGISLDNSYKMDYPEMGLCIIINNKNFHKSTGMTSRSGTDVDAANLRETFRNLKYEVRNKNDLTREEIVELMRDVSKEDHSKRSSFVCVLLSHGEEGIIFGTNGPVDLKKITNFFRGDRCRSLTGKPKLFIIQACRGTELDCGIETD
T1 sequence (P42574 176-277 limits assumed): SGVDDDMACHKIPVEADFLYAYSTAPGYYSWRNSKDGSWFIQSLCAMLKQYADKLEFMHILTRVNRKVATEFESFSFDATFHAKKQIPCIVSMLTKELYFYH
Procedure: 8. AMC release Assays.
In vitro Caspase-3 assay:
(§1) AMC conjugated peptides 16-19 (50 μL, 5μM)
All experiments were performed in triplicates with […]
blank control) to induce the activity of caspase-3. […]
(§2) collected by centrifugation.
(§3) Besides, an induced well pretreated with the caspase pan-

[3] = Dealkylation of cyclic peptides with 2-mercaptopyridine (regeneration of linear peptide); type: physicochemical; details: chemical stability under reductive conditions; 2-mercaptopyridine (10 equiv., 10 mM) in PBS pH 7.4, 37 °C, different time points, HPLC / LC-MS; Fig. 3A, B
Procedure: in linear gradient mixtures.
1. Preparation of alkylated sulfonium peptides[1]
The alkylated reagent (1.2 equiv)
Then the solution was purified by reversed […]
peptide can be gradually regenerated to the linear peptide.
To 100 µL of each solution 1 µL […]
linear gradient from 10% to 70% acetonitrile over 15min. […]
quantified by LC/MS-based peak detection at 254nm.
4. Flow Cytometry Analysis
T47D cells were seeded in
37°C), washed with PBS, and resuspended in PBS. […]
cytometer (Becton Dickinson) and CellQuest Pro (or CFlow plus).

HeLa cells = assay: Flow cytometry cellular uptake in HeLa cells; type: cell-based
U2OS cells [4] = assay: Flow cytometry cellular uptake in U2OS cells; type: cell-based; details: FITC-labelled peptides 10 µM, 4 h, 37 °C, FACS, Fig. S4 (legend not available)
[5] = target: T2, caspase-3 in U2OS cell lysates (Homo sapiens, UniProt P42574); assay: AMC release assay in U2OS cell lysate; type: biochemical; details: peptide 5 µM, 24 h, Fig. 5D
T2 construct: endogenous in cells; host or cells: U2OS cells, ABT-737-induced, lysed
T2 sequence (P42574 29-175 limits assumed): T1 sequence (P42574 29-175 limits assumed)
T2 sequence (P42574 176-277 limits assumed): T1 sequence (P42574 176-277 limits assumed)
Procedure: 8. AMC release Assays. […]
as §1
All experiments were performed in triplicates with
blank control) to induce the activity of caspase-3.
as §2, §3

U2OS cells [6] = assay: Confocal microscopy of AMC release in U2OS cells; type: cell-based
Procedure: (§4) experiments were performed in triplicates with consistent results.
(§5) 100μl U2OS cells were cultured in 96 well plate (~5000 cells / well) overnight, then 0.1 μl of ABT-737 stock solution (10 mM, 1 h) was added into half of the wells to induce apoptosis. After that, peptide 16, 17i, 18i, and 19 stock solution (final concentration of 5 µM) were added into the cells. At different time points, the fluorescence of the wells treated […]
(§6) difference in fluorescence yields between ABT-737 treated and untreated cells was plotted as a function of time to represent the caspase-3 activities in live cells.
(§7) U2OS cells were cultured in 24 well plates with imaging dishes (50000 cells/well) and then treated with peptide 17i, 18i and 19 (100µM) in FBS free medium for 4h. Then the medium was removed and the cells were cultured with a fresh medium containing 10mM GSH for 8h, 16h, or 24h. The release efficiency of AMC was monitored using fluorescence microscopy with pseudo-colored in blue as described.
(§8) Table S1. Conversion of peptide 1 to peptide 1a in different solvents at different time intervals.
(§9) Table S2. Peptide sequences and observed masses following HPLC purification. Calculated and Found m/z are presented as [M+H] + / [M/2+H] +/ [M/3+H] +/ [M/4+H] +.
(§10) Peptide Sequence Calculated mass Observed mass
(§11) (1 picture or pasted object on this page, not shown here)

U2OS cells [7] = assay: AMC release (caspase-3) assay in live U2OS cells; type: cell-based; details: ABT-737 10 µM 1 h, peptide 5 µM, after incubation for 12 hours, Fig. S9
Procedure: as §4, §5, §6, §7, §8, §9, §10, §11

CC(=O)N[C@@H](Cc1c[nH]c2ccccc12)C(=O)N[C@H]1CC[S+](C)Cc2ccc(cc2)-c2ccc(cc2)C[S+](C)CC[C@@H](C(N)=O)NC(=O)[C@H](CC(=O)O)NC(=O)CNC(=O)[C@H](CCCNC(=N)N)NC1=O (some centres unmarked) [1i]
trypsin stability (peptide remaining) (trypsin): significantly enhanced the trypsin stability

CCCC[C@@H]1NC(=O)[C@H](CC(=O)O)NC(=O)[C@@H](NC(C)=O)CSCc2ccc(cc2)-c2ccc(cc2)CSC[C@H](C(=O)N[C@@H](CC(=O)O)C(=O)Nc2ccc3c(C)cc(=O)oc3c2)NC1=O [18i] (HELM PEPTIDE1{[ac].C.D.[Nle].[dC].D.[Cc1cc(=O)oc2cc(N[*:1])ccc12]}|CHEM1{[c1cc(-c2ccc(C[*:2])cc2)ccc1C[*:1]]}$PEPTIDE1,CHEM1,2:R3-1:R1|PEPTIDE1,CHEM1,5:R3-1:R2$$$V2.0)
membrane toxicity (LDH release) (U2OS cells [1]; 160 µM, 4 h, 10% serum, Fig. S8): negligible membrane toxicity

CCCC[C@H](NC(=O)[C@H](CC(=O)O)NC(=O)[C@H](CCSC)NC(C)=O)C(=O)N[C@@H](CCSC)C(=O)N[C@@H](CC(=O)O)C(=O)Nc1ccc2c(C)cc(=O)oc2c1 [compound 17] (HELM PEPTIDE1{[ac].M.D.[Nle].M.D.[Cc1cc(=O)oc2cc(N[*:1])ccc12]}$$$$V2.0)
AMC release / susceptibility to caspase-3 in vitro [2]: quick degradation

CCCC[C@H](NC(=O)[C@H](CC(=O)O)NC(=O)[C@H](CCCNC(=N)N)NC(=O)[C@H](CCCNC(=N)N)NC(=O)[C@H](CCCNC(=N)N)NC(=O)[C@H](CCCNC(=N)N)NC(=O)[C@H](CCCNC(=N)N)NC(=O)[C@H](CCCNC(=N)N)NC(=O)[C@H](CCCNC(=N)N)NC(=O)[C@H](CCCNC(=N)N)NC(=O)[C@H](CCCNC(=N)N)NC(C)=O)C(=O)N[C@@H](CC)C(=O)N[C@@H](CC(=O)O)C(=O)Nc1ccc2c(C)cc(=O)oc2c1 [compound 19] (HELM PEPTIDE1{[ac].R.R.R.R.R.R.R.R.R.D.[Nle].[Abu].D.[Cc1cc(=O)oc2cc(N[*:1])ccc12]}$$$$V2.0)
membrane lysis effect (U2OS cells [1]; Fig. S7B (confocal, 100 µM) and S8 (LDH release, 4 h, 10% serum)): membrane lysis effect

Ac-W-(cyclo-d)-MRGDM-NH2 (sidechain bridge or staple) [1d, peptide 1 Met bis-alkylated with linker d]
regeneration of the parental linear peptide 1 (dealkylation) [3]: time-dependent regeneration of the parental peptide 1

FITC-βA-(cyclo-c)-MRRRM-NH2 (sidechain bridge or staple) [11c, peptide 11 cyclized using linker c]
cellular uptake efficiency (flow cytometry) in the presence of serum (HeLa cells; 10% fetal bovine serum, 5, 10, 20 µM, Fig. S5): same tendency as in the absence of serum | cellular uptake efficiency (flow cytometry) (HeLa cells; FITC-labelled peptides 10 µM, 4 h, 37 °C, absence of serum, trypsin wash, FACS, Fig. 4C): best uptake; also recorded: better cellular uptake than the thioether cyclic peptide | cellular uptake efficiency (flow cytometry) (U2OS cells [4]): best uptake

cyclo-i-Met-Asp-Nle-Met-Asp-AMC (sidechain bridge or staple) [17i, Met bis-alkylated peptide 17 with linker i]
AMC release in cell lysate pretreated with pan caspase inhibitor FMK ([5]; U2OS lysate, FMK 100 µM): reduced significantly | time-dependent AMC release in cell lysate ([5]; lysate of U2OS cells induced with ABT-737 (10 µM, 1 h), without FMK, triplicates): increased gradually during 24 h | AMC fluorescence in cells (confocal) in the presence of serum (U2OS cells [6]; peptide 50 µM 4 h with 10% fetal bovine serum, GSH 10 mM 16 h, ABT-737 10 µM 1 h, Fig. S7A): weaker fluorescence intensity | AMC fluorescence in cells (confocal, 405 nm excitation) (U2OS cells [6]; peptide 100 µM 4 h in FBS free medium, then 10 mM GSH 8, 16 or 24 h, then ABT-737 10 µM 1 h, Fig. 5E, S7B): lighted gradually | AMC release / susceptibility to caspase-3 in vitro [2]: not a suitable substrate for caspase-3 | caspase-3 activity (AMC release) in live cells (U2OS cells [7]): higher caspase-3 activity than the linear peptide 16, while lower than 19
